Measurements: US4902720A (priority 1988, dated 1990)
Like-named read-outs stand apart in the source and are kept apart here.

Tests used:
[1] = system: herpes simplex virus (HSV types 1 and 2)
[2] = system: HSV-1; conditions: 20 mg/ml TEAC, virus control 1398
[3] = system: HSV type 1
[4] = system: HSV-1 (F strain); conditions: for % plaque inhibition B: Exp. 1D
[5] = system: HSV-2 (333 strain); conditions: for % plaque inhibition: 2 hours pre-incubation
Procedure: In Series No. 1 of Example No. 1, monolayer cultures of Vero, RK-13 (rabbit kidney), and WISH (human amnion, Hayflick) cells were used in the experiments of Example No. 1. The cells were grown in Basal Minimal Eagle's Media supplemented with 5% fetal calf serum, 1% glutamine, sodium bicarbote and antibiotics. Cultures were maintained in a maintenance media that was the same media, except that the maintenance media contained 2% fetal calf serum. An F Strain of HSV-1 was chosen because it is a well-known prototype of HSV-1. This F Strain can be obtained from the American Type Culture Collection (ATCC), 12301 Parklawn Drive, Rockville, MD 20852, at which it is identified as ATC-VR 733. For studies with HSV-2, a G strain of HSV-2 (ATCC-VR 734) and a 333 strain of HSV-2 were selected. These strains also can be obtained from the ATCC.
Two methods were used to test the drug's effectiveness in the suppression of viral growth. In the pre-inoculation experiments, the drug was added after adsorption of the virus. In the pre-incubation experiments, the drug was added prior to infection of the cell cultures.
Accordingly, the pre-inoculation experiments measured the effect of the drug on a cell that was already infected with the virus. The pre-incubation experiments measured the cell cultures that were treated with the drug prior to the inoculation to determine if these cells then would be permissive or non-permissive to the tested virus. In these experiments, plaque reduction assays provided a quantitative measure of antiviral activity and was deemed to be reliable and objective.
In the pre-incubation experiments, the media was either decanted or gently aspirated from the cultures. After decanting or aspirating, 1 ml of the drug dilution plus maintenance media was added to the cultures. The cultures that served as virus controls or cell controls received 2 ml of maintenance media. After the pre-treatment period, the media was again aspirated and the cell cultures were infected with the virus.
When this occurred, the cultures were fixed and stained with crystal violet. The plaque were then carefully counted under the microscope. By such a counting and careful comparison, percentages of plaque inhibition in the treated cultures were then calculated.
The 333 strain, which can be obtained from ATCC, was used.

[6] = system: HSV-1 (McKrae strain)
[7] = system: HSV-1 (McKrae strain); conditions: 20 mg/ml
Procedure: In experiment 1K, cultures were infected with the McKrae strain of HSV-1 at a high multiplicity of infection. […] At designated times, the cultures were harvested. The supernatant fluid and the cells were kept separate to assay for viruses released in the supernatant fluid and also that present in the cells. Both supernatant fluid and the cells were frozen immediately at -85° C. These samples were then assayed for infectious particles on susceptible cells.

Compound: CC[N+](CC)(CC)CC.[Cl-] [TEAC, tetraethylammonium chloride]
- attacks ([1]; Patient B, about a month after report on fourth infusion): no more attacks
- recurrences ([1]; Patient B, after third infusion): recurrences were not eliminated
- resolution of oral lesions ([1]; Patient B, first infusion 3.7 cc (5 mg/kg)): resolution occurring in a shorter than usual time
- value of last treatment ([1]; Patient B, fourth infusion 4.8 cc): of no value
- aura and expected labial lesion ([1]; Patient B, second infusion 3.7 cc, following day): absence of an aura and no occurrence of the expected lesion except for a very small lesion at the corner of the mouth
- time to disappearance of penile lesion ([1]; Patient B, third infusion 4.5 cc): 2 to 3 days
- long term outcome ([1]; Patient C, five months and ten months after initial treatment): no further problems
- infection ([1]; Patient I, first infusion 4.7 cc, four to five days later): they were all clear
- time to clearing of lesion ([1]; Patient I, second infusion 4.75 cc (5.5 mg/kg)): 3 days
- nocturnal headaches ([1]; Patient I, three months after second infusion): no further nocturnal headaches
- PFU/ml ([2]; removed 4 hours P.I.): 1042 PFU/ml
- PFU/ml ([2]; removed 6 hours P.I.): 596 PFU/ml
- PFU/ml ([2]; removed 8 hours P.I.): 436 PFU/ml
- PFU/ml ([2]; removed 10 hours P.I.): 163 PFU/ml
- crusting ([3]; Patient L, 2.9 cc (5.5 mg/kg), 7th day after treatment): the crusting had all disappeared
- time to clearing of lesions ([3]; Patient M, 1% TEAC in hydrophillic ointment base, topical, five days later): cleared in a shorter time period than usual
- lesion ([3]; Patient M, ointment resumed two months later, after three days): the lesion had not spread and had now crusted
- % plaque inhibition ([4]; Exp. 1C, 3 hours pre-incubation, 2.5 mg/culture): 10%
- % plaque inhibition ([4]; Exp. 1C, 3 hours pre-incubation, 5.0 mg/culture): 22%
- % plaque inhibition ([4]; Exp. 1C, 3 hours pre-incubation, 10.0 mg/culture): 71%
- % plaque inhibition B ([4]; 3 hours pre-incubation, 12.5 mg/culture): 80%
- % plaque inhibition B ([4]; 3 hours pre-incubation, 25.0 mg/culture): 79%
- % plaque inhibition B ([4]; 3 hours pre-incubation, 50.0 mg/culture): 82%
- % plaque inhibition B ([4]; 3 hours pre-incubation, 100.0 mg/culture): 79%
- % plaque inhibition ([4]; Exp. 1E, 2 hours pre-incubation, 6.25 mg/culture): 0%
- % plaque inhibition ([4]; Exp. 1E, 2 hours pre-incubation, 12.50 mg/culture): 18%
- % plaque inhibition ([4]; Exp. 1E, 2 hours pre-incubation, 25.00 mg/culture): 17%
- % plaque inhibition ([4]; Exp. 1E, 2 hours pre-incubation, 50.00 mg/culture): 24%
- % plaque inhibition ([4]; Exp. 1E, 2 hours pre-incubation, 100.00 mg/culture): 68%
- % plaque inhibition ([4]; Exp. 1E, 4 hours pre-incubation, 6.25 mg/culture): less than 20%
- % plaque inhibition ([4]; Exp. 1E, 4 hours pre-incubation, 12.50 mg/culture): less than 20%
- % plaque inhibition ([4]; Exp. 1E, 4 hours pre-incubation, 25.00 mg/culture): 37.5%
- % plaque inhibition ([4]; Exp. 1E, 4 hours pre-incubation, 50.00 mg/culture): 63%
- appearance of cell layer ([4]; Exp. 1E, 4 hours pre-incubation, 100.00 mg/culture): thin
- % plaque inhibition ([4]; Exp. 1E, 4 hours pre-incubation, 100.00 mg/culture, cell layer thin): 100%
- % plaque inhibition ([4]; Exp. 1E, 7 hours pre-incubation, 6.25 mg/culture): 50%
- % plaque inhibition ([4]; Exp. 1E, 7 hours pre-incubation, 12.50 mg/culture): 76%
- % plaque inhibition ([4]; Exp. 1E, 7 hours pre-incubation, 25.00 mg/culture): 96.5%
- % plaque inhibition ([4]; Exp. 1E, 7 hours pre-incubation, 50.00 mg/culture): 95.7%
- appearance of cell layer ([4]; Exp. 1E, 7 hours pre-incubation, 100.00 mg/culture): thin
- % plaque inhibition ([4]; Exp. 1E, 7 hours pre-incubation, 100.00 mg/culture, cell layer thin): 100%
- % plaque inhibition ([5]; 6.25 mg/culture): 0%
- % plaque inhibition ([5]; 12.50 mg/culture): 25%
- % plaque inhibition ([5]; 25.00 mg/culture): 42%
- % plaque inhibition ([5]; 50.00 mg/culture): 56%
- sensitivity of HSV-2 (333 strain) to TEAC vs HSV-1 ([5]; based on Table 6): even more sensitive to TEAC than HSV-1
- number of cells containing intranuclear dense bodies vs control ([6]; 6 hours post infection): no striking difference
- No. of cells with internuclear dense bodies ([6]; TEAC treated, 24 hours P.I., 300 cells examined, control 0 of 50): 12
- No. of cells with virus particles ([6]; TEAC treated, 24 hours P.I., 300 cells examined, control 50 of 50): 8
- Total % ([6]; TEAC treated, 24 hours P.I., control 100%): 6%
- size of nucleocapsids ([6]; TEAC-treated cells, 24 hours post infection): about 99.6 A
- virus yield, supernatant ([7]; 6 hours P.I., dilution 10^-1, control 3): 0 PFU/m
- virus yield, cell ([7]; 6 hours P.I., dilution 10^-1, control 7): 2 PFU/m
- virus yield, supernatant ([7]; 6 hours P.I., dilution 10^-2, control 1): 0 PFU/m
- virus yield, cell ([7]; 6 hours P.I., dilution 10^-2, control 7): 5 PFU/m
- virus yield, supernatant ([7]; 6 hours P.I., dilution 10^-3, control 0): 0 PFU/m
- virus yield, cell ([7]; 6 hours P.I., undiluted (Und.), control 16): 12 PFU/m
- virus yield, cell ([7]; 10 hours P.I., dilution 10^-1, control 12): 3 PFU/m
- virus yield, supernatant ([7]; 10 hours P.I., dilution 10^-1, control 22): 0 PFU/m
- virus yield, cell ([7]; 10 hours P.I., dilution 10^-2, control 2): 0 PFU/m
- virus yield, supernatant ([7]; 10 hours P.I., dilution 10^-2, control 7): 0 PFU/m
- virus yield, supernatant ([7]; 10 hours P.I., dilution 10^-3, control 0): 0 PFU/m
- virus yield, cell ([7]; 10 hours P.I., undiluted (Und.), control 48): 13 PFU/m
- virus yield, supernatant ([7]; 20 hours P.I., dilution 10^-1, control 91): 0 PFU/m
- virus yield, cell ([7]; 20 hours P.I., dilution 10^-1, control W.O. (wiped out)): 5 PFU/m
- virus yield, supernatant ([7]; 20 hours P.I., dilution 10^-2, control 10): 0 PFU/m
- virus yield, cell ([7]; 20 hours P.I., dilution 10^-2, control W.O. (wiped out)): 0 PFU/m
- virus yield, supernatant ([7]; 20 hours P.I., dilution 10^-3, control 0): 0 PFU/m
- virus yield, cell ([7]; 20 hours P.I., undiluted (Und.), control W.O. (wiped out)): 42 PFU/m
- virus yield, supernatant ([7]; 24 hours P.I., dilution 10^-1, control 107): 0 PFU/m
- virus yield, cell ([7]; 24 hours P.I., dilution 10^-1, control W.O. (wiped out)): 32 PFU/m
- virus yield, supernatant ([7]; 24 hours P.I., dilution 10^-2, control 18): 0 PFU/m
- virus yield, cell ([7]; 24 hours P.I., dilution 10^-2, control W.O. (wiped out)): 10 PFU/m
- virus yield, supernatant ([7]; 24 hours P.I., dilution 10^-3, control 2): 0 PFU/m
- virus yield, cell ([7]; 24 hours P.I., undiluted (Und.), control W.O. (wiped out)): 58 PFU/m
- virus yield, supernatant ([7]; 28 hours P.I., dilution 10^-1, control 190): 0 PFU/m
- virus yield, cell ([7]; 28 hours P.I., dilution 10^-1, control W.O.): TMTC
- virus yield, supernatant ([7]; 28 hours P.I., dilution 10^-2, control 58): 0 PFU/m
- virus yield, cell ([7]; 28 hours P.I., dilution 10^-2, control W.O. (wiped out)): 15 PFU/m
- virus yield, supernatant ([7]; 28 hours P.I., dilution 10^-3, control 7): 0 PFU/m
- virus yield, cell ([7]; 28 hours P.I., undiluted (Und.), control W.O.): W.O.
